According to patent publication US6995177B1, “HCV NS3 protease inhibitors” (Istituto Di Ricerche Di Biologia Molecolare P Angeletti SPA, priority 1999, dated 2006):

biological target: HCV NS3 protease (Hepatitis C virus genotype 1b, UniProt P26662); test: Microplate protease activity assay; assay type: biochemical, hepatitis C virus (J strain); conditions: Table I; inhibition of HCV NS3 protease, co-factor Pep4AK, tritiated substrate
Protocol: Microplate Protease Activity Assay
The HCV-protease (J strain) was stored until use at −80° C. in 250 mM NaCl, phosphate buffer pH 6.5, 50% glycerol, 0.1% CHAPS. As protease co-factor the peptide Pep4AK (KKKGSVVIVGRIILSGR-NH2), spanning the central hydrophobic core (residues 21–34) of the NS4A protein, with a three-lysine tag at the N-terminus to increase solubility (Bianchi, E. et al., Biochemistry 36, 7890–7897;1997), was used. Pep4AK was stored at −80° C. in DMSO; the tritiated substrate Ac-DEMEECASHLPYK (^3H-Ac)-NH2, and the corresponding cold substrate Ac-DEMEECASHLPYK(Ac)-NH2 were stored at −80° C. in DMSO/DTT.
The assay was run in Costar polypropylene 96-well plates. The composition of the reaction mixture was as follows (100 μl): • Glycerol 15% • DTT 30 mM • Hepes pH 7,5 50 mM • Triton X-100 0.05% • Protease 10 nM • hot+cold substrate 5 μM (300.000 cpm) • Pep4AK 15 μM
Test compounds were dissolved—in DMSO (final concentration 10% DMSO)
Pep4AK was pre-incubated with protease for 5 min prior to addition of substrate mix. In these conditions, the substrate Km was 7±2 μM. Test compounds were added at 8 different concentrations in 8 different wells. Plates were shaken for 30 minutes at room temperature, then an ionic exchange resin (100 μl of 20% Fractogel TSK-DEAE® 650S, Merck) was added to capture unprocessed substrate and plates shaken for another 10 minutes. After allowing the resin to settle by centrifugation, 30 μl of the reaction mix were transferred in a 96-well plate (Picoplate, Packard), admixed with 250 μl of scintillation cocktail Microscint 40, and the radioactivity measured in a scintillation Packard Top Count β-counter.
IC50 was calculated from the test compound dilution curve, as the concentration of compound giving 50% inhibitions.

Chain of HCV NS3 protease (P26662 1027-1206, other chains not shown): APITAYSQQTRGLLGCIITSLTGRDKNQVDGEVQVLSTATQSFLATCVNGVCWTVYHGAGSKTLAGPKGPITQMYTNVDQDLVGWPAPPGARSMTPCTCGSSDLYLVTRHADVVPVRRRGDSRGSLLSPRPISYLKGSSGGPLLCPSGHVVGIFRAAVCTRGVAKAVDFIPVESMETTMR

Row | Molecule | IC50
1 | CCNC(=O)[C@H](CC(C)C)NC(=O)[C@H](CC(=O)O)NC(=O)[C@H](CC1CCCCC1)NC(=O)c1ccccc1C(=O)O [Example 7] | 64 µM
2 | CC(C)C[C@H](NC(=O)[C@H](CC(=O)O)NC(=O)[C@H](CC1CCCCC1)NC(=O)[C@H]1CCCC[C@@H]1C(=O)O)C(N)=O [Example 2, SS-cyclohexane-1,2-dicarboxylate monoamide of Cha-Asp-Leu-NH2] | 54 µM
3 | S,S-cyclohexane-1,2-dicarboxylate monoamide of Cha-Asp-Leu-NHEt [Example 3] | 32 µM
4 | CC(C)C[C@H](NC(=O)[C@H](CC(=O)O)NC(=O)[C@H](CC1CCCCC1)NC(=O)c1ccccc1C(=O)O)C(N)=O [Example 6] | 64 µM
5 | CCNC(=O)[C@H](CC(C)C)NC(=O)[C@H](CC(=O)O)NC(=O)[C@H](CC1CCCCC1)NC(=O)C1=C(C(=O)O)CCCC1 [Example 4] | 38 µM
6 | CC(C)C[C@H](NC(=O)[C@H](CC(=O)O)NC(=O)[C@H](CC1CCCCC1)NC(=O)[C@@H]1CCC[C@H]1C(=O)O)C(N)=O [Example 5] | 60 µM
7 | CC(C)C[C@H](NC(=O)[C@H](CC(=O)O)NC(=O)[C@H](CC1CCCCC1)NC(=O)[C@@H]1CCCC[C@H]1C(=O)O)C(N)=O (single isomer, unassigned) [Example 1, R1R-cyclohexane-1,2-dicarboxylate monoamide of Cha-Asp-Leu-NH2] | 15 µM

same assay, conditions: Table II; inhibition of HCV NS3 protease, co-factor Pep4AK, tritiated substrate

Row | Molecule | IC50
8 | CC(C)C[C@H](NC(=O)[C@H](CC(=O)O)NC(=O)[C@@H](NC(=O)[C@@H]1CCCC[C@H]1C(=O)O)c1cccc(OC(=O)Cc2ccc3ccccc3c2)c1)C(N)=O [Example 10] | 22 µM
9 | CC(C)C[C@H](NC(=O)[C@H](CC(=O)O)NC(=O)[C@@H](NC(=O)[C@@H]1CCCC[C@H]1C(=O)O)c1ccc(Br)cc1)C(N)=O [Example 15] | 26 µM
10 | CC(C)C[C@H](NC(=O)[C@H](CC(=O)O)NC(=O)[C@@H](NC(=O)[C@@H]1CCCC[C@H]1C(=O)O)c1ccccc1F)C(N)=O [Example 14] | 47 µM
11 | CC(C)CC(NC(=O)C(CC(=O)O)NC(=O)C(NC(=O)C1CCCCC1C(=O)O)c1cccc(OC(=O)CC(c2ccccc2)c2ccccc2)c1)C(N)=O (single isomer, unassigned) [Example 8] | 13 µM
12 | CC(C)C[C@H](NC(=O)[C@H](CC(=O)O)NC(=O)[C@@H](NC(=O)[C@@H]1CCCC[C@H]1C(=O)O)c1ccc(Cl)cc1)C(N)=O [Example 12] | 37 µM
13 | CC(C)C[C@H](NC(=O)[C@H](CC(=O)O)NC(=O)[C@@H](NC(=O)[C@@H]1CCCC[C@H]1C(=O)O)c1cccc(OC(=O)Cc2cccc3ccccc23)c1)C(N)=O [Example 9] | 22 µM
14 | CC(C)C[C@H](NC(=O)[C@H](CC(=O)O)NC(=O)[C@@H](NC(=O)[C@@H]1CCCC[C@H]1C(=O)O)c1cccc(OC(=O)[C@@H]2CCCC[C@H]2C(=O)O)c1)C(N)=O [Example 11] | 35 µM
15 | CC(C)C[C@H](NC(=O)[C@H](CC(=O)O)NC(=O)[C@@H](NC(=O)[C@@H]1CCCC[C@H]1C(=O)O)c1ccccc1)C(N)=O [Example 13] | 40 µM

same assay, conditions: Table III; inhibition of HCV NS3 protease, co-factor Pep4AK, tritiated substrate

Row | Molecule | IC50
16 | CC(C)C[C@H](NC(=O)[C@H](CCC(=O)O)NC(=O)[C@H](CC1CCCCC1)NC(=O)[C@@H]1CCCC[C@H]1C(=O)O)C(N)=O [Example 16] | 41 µM
17 | CC(C)C[C@H](NC(=O)[C@H](CC(=O)O)N(C)C(=O)[C@H](CC1CCCCC1)NC(=O)[C@@H]1CCCC[C@H]1C(=O)O)C(N)=O [Example 17] | 100 µM
18 | CC(C)C[C@H](NC(=O)[C@H](CC(=O)O)N(C)C(=O)[C@H](CC1CCCCC1)NC(=O)c1ccccc1C(=O)O)C(N)=O [Example 18] | 115 µM

same assay, conditions: Table IV; inhibition of HCV NS3 protease, co-factor Pep4AK, tritiated substrate

Row | Molecule | IC50
19 | O=C(O)CCN(CCC(c1ccccc1)c1ccccc1)C(=O)[C@@H](NC(=O)[C@@H]1CCCC[C@H]1C(=O)O)c1ccccc1F [Example 23] | 6 µM
20 | COc1ccc(CCN(CCC(=O)O)C(=O)[C@@H](NC(=O)[C@@H]2CCCC[C@H]2C(=O)O)c2ccccc2)cc1OC [Example 31] | 123 µM
21 | O=C(O)CCN(CCc1ccc(Cl)cc1Cl)C(=O)[C@@H](NC(=O)[C@@H]1CCCC[C@H]1C(=O)O)c1ccccc1 [Example 30] | 49 µM
22 | O=C(O)CCN(CC(c1ccccc1)c1ccccc1)C(=O)[C@@H](NC(=O)[C@@H]1CCCC[C@H]1C(=O)O)c1ccccc1 [Example 29] | 39 µM
23 | O=C(O)CCN(CCC(c1ccccc1)c1ccccc1)C(=O)[C@@H](NC(=O)[C@@H]1CCCC[C@H]1C(=O)O)c1ccccc1 (single isomer, unassigned) [Example 19] | 14 µM
24 | COc1cccc(CCN(CCC(=O)O)C(=O)[C@@H](NC(=O)[C@@H]2CCCC[C@H]2C(=O)O)c2ccccc2F)c1 [Example 27] | 66 µM
25 | COc1ccccc1CCN(CCC(=O)O)C(=O)[C@@H](NC(=O)[C@@H]1CCCC[C@H]1C(=O)O)c1ccccc1F [Example 26] | 44 µM
26 | NC(=O)CCN(CCC(c1ccccc1)c1ccccc1)C(=O)[C@@H](NC(=O)[C@H]1CCCC[C@@H]1C(=O)O)c1ccc(Br)cc1 [Example 25] | 59 µM
27 | O=C(O)CCN(CCC(c1ccccc1)c1ccccc1)C(=O)[C@H](CC1CCCCC1)NC(=O)[C@@H]1CCCC[C@H]1C(=O)O [Example 20] | 55 µM
28 | O=C(O)CCN(CCc1ccccc1Cl)C(=O)[C@@H](NC(=O)[C@@H]1CCCC[C@H]1C(=O)O)c1ccccc1F [Example 28] | 70 µM
29 | O=C(O)CCN(CCC(c1ccccc1)c1ccccc1)C(=O)[C@@H](NC(=O)[C@@H]1CCCC[C@H]1C(=O)O)c1ccc(Br)cc1 [Example 21] | 1.7 µM
30 | CCOC(=O)CCN(CCC(c1ccccc1)c1ccccc1)C(=O)[C@@H](NC(=O)[C@H]1CCCC[C@@H]1C(=O)O)c1ccc(Br)cc1 [Example 24] | 60 µM
31 | O=C(O)CCN(CCc1ccc(Cl)cc1Cl)C(=O)[C@H](CC1CCCCC1)NC(=O)[C@@H]1CCCC[C@H]1C(=O)O [Example 33] | 177 µM
32 | O=C(O)CCN(CCC(c1ccccc1)c1ccccc1)C(=O)[C@@H](NC(=O)[C@@H]1CCCC[C@H]1C(=O)O)c1ccc(C(F)(F)F)cc1 [Example 22] | 7 µM
33 | O=C(O)CCN(CC(c1ccccc1)c1ccccc1)C(=O)[C@H](CC1CCCCC1)NC(=O)[C@@H]1CCCC[C@H]1C(=O)O [Example 32] | 133 µM
